Experimental data taken from patent US10188629B2, “Prodrug of green tea epigallocatechin-3-gallate (pro-EGCG) for use in the treatment of endometriosis” (The Hong Kong Polytechnic University, priority 2012, dated 2019).

Legend:
[1] = test system: microvessels in the endometriotic lesions; test: Angiogenesis of endometriotic lesions by Cellvizio, microCT and CD31/αSMA immunostaining; format: in vivo, mice; conditions: after 4 weeks; for functional capillary length, density and area in the lesions compared to saline group / total vessel area in the lesions compared to saline group / total vessel length in the lesions compared to saline group / lesion neovascularization: Cellvizio; for functional capillary length, density and area in the lesions compared to saline group / total vessel area in the lesions compared to saline group / total vessel length in the lesions compared to saline group: FITC-Dextran; for lesion neovascularization / vessel volume and density in the lesions compared to saline group: microCT; for lesion neovascularization: CD31 and αSMA staining; for CD31-positively and αSMA-negatively stained new microvessel numbers compared to saline group / CD31-positively and αSMA-positively stained old microvessel numbers compared to saline group: immunostaining; for vessel volume and density in the lesions compared to saline group: Microfil
Method: At the end of intervention, functional angiogenesis of the endometriotic lesions (n=8 per group) was monitored by measuring the flow of fluorescence dye in the new microvessels developed in the implants using a Cellvizio® LAB LSU-488 system with a ProFlex Microprobe S1500 (Mauna Kea Technologies, Paris) as previously described (Xu H, et al. Fertil Steril 2011; 96:1021-8.). A total of 10 mg/ml of FITC-Dextran was injected intravenously into each mouse prior to imaging. Total vessel length (μm) and area (μm^2) and functional capillary length (μm^−1) and area density were measured using Cellvizio® LAB Vessel Detection software, and averaged from 4 perpendicular regions of the lesions in replicates. At the same time, apoptotic cells in the lesions were captured by Cellvizio-LAB 488 with a ProFlex MiniO/100 microprobe using Cellvizio® LAB I/C Viewer software (Mauna Kea Technologies). A total of 10 μl of 10 μM YO-PRO®-1 iodide in DSMO was injected into the lesion area.
After live animal imaging, structural angiogenesis in the endometriotic lesions (n=4 per group) was further examined by detecting the Microfil in the new microvessels developed in the implants using a VivaCT 40 μCT system (Scanco Medical, Switzerland) as previously described (Sun M H, et al. J Orthop Res. 2012; 30:137-43.). The mice were sacrificed by cervical dislocation and where immediately perfused with 4% paraformaldehyde and Microfil MV-120 Blue. Three-dimensional microvessel architecture was constructed, and absolute and relative Microfil-filled microvessel volumes were determined using the built-in software.
Paraffin sections (n=4 per group) were prepared for standard hematoxylin and eosin (H&E) staining, angiogenesis immunostaining and TUNEL staining as previously described (Xu H, et al. Hum Reprod 2009; 24:608-18.). Immunohistochemistry staining of in situ angiogenesis was performed by the immunoperoxidase method using a MACH 3 HRP Polymer Kit (Biocare Medical, Concord), and counterstained using methyl green or blue solution.
Antibodies against mouse CD31 and alpha-smooth muscle actin (αSMA) (Abcam Inc., MA) were used to double fluorescence stain the microvessels developed in the endometriotic lesions, and CD34 (Abeam Inc.) was used to stain the microvessels in the ovaries and uterus. The samples without primary antibodies served as negative controls. The total number of positively stained new and old microvessels in the lesions was counted, respectively. The mean microvessel numbers and sizes were calculated from 5 separated sections from each animal within the treatment group and are presented as numbers per lesion and μm^2 per lesion, respectively.

[2] = General tolerability and body weight during the intervention; conditions: i.p. once per day, 4 weeks; EGCG, pro-EGCG 50 mg/kg, vitamin E 20 mg/kg
Method: Immediately after the transplantation, the mice were randomly assigned to receive either vehicle (n=8; sham control), vitamin E (n=8; anti-oxidant control, 20 mg/kg), EGCG (n=8; anti-angiogenesis control, 50 mg/kg, ≈1.5 mg/30 g) or pro-EGCG (n=8; 50 mg/kg).
Dulbecco's phosphate-buffered saline (PBS, Sigma) was used as solvent to dissolve the drugs. These doses were selected because their significant an angiogenic and anti-oxidative effects have been reported in mice (Sang S, et al. Chem Res Toxicol 2005; 18:1762-9; Villayandre B M, et al. Brain Research 2004; 1028, 148-55). The treatments were administered once per day via intraperitoneal injections for a consecutive 4-week period.

[3] = cited from earlier work
[4] = test system: ovarian follicles, endometrial glands, ovarian and endometrial stroma microvessels; test: Reproductive effects on eutopic endometrium and ovaries (H&E, CD34 immunostaining); format: in vivo, mice; conditions: H&E staining after 4-week intervention
Method: Reproductive effects of EGCG and pro-EGCG on the endometrium and ovaries of each animal were also examined. After the 4-week intervention, the uterine horns and ovaries (n=8 per group) were removed and fixed for histological examination and angiogenesis immunostaining as described above. Endometrial glands, ovarian follicles and vascularization in endometrial and ovarian stroma were assessed.

cancer cells = conditions: cited from earlier work
[5] = test system: human prostate, breast, leukemic, and simian virus 40-transformed cells; conditions: cited from earlier work

SMILES	functional capillary length, density and area in the lesions compared to saline group [1]	total vessel area in the lesions compared to saline group [1]	total vessel length in the lesions compared to saline group [1]	lesion neovascularization [1]	CD31-positively and αSMA-negatively stained new microvessel numbers compared to saline group [1]	CD31-positively and αSMA-positively stained old microvessel numbers compared to saline group [1]	vessel volume and density in the lesions compared to saline group [1]	signs of stress, intolerance or toxic responses to administration [2]	bioavailability [3]	stability under physiological conditions ([3]; physiological conditions)	effects on ovarian follicles [4]	effects on uterine endometrial glands [4]	cell death induction (cancer cells)	proteasome inhibition (cancer cells)	all of the microvessel parameters compared with EGCG group ([1]; 50 mg/kg i.p.)	potency in inhibition of proliferation and transforming activity and induction of apoptosis, compared with EGCG [5]
O=C(O[C@@H]1Cc2c(O)cc(O)cc2O[C@@H]1c1cc(O)c(O)c(O)c1)c1cc(O)c(O)c(O)c1 [EGCG, (−)-epigallocatechin-3-gallate]	significantly inhibited	significantly inhibited	significantly inhibited	poorly developed	significantly inhibited	significantly inhibited	significantly inhibited	No signs of stress, intolerance to anesthesia, surgery or implantation or any toxic responses	poor bioavailablity	notably unstable	not affected	not affected	–	–	–	–
CC(=O)Oc1cc(OC(C)=O)c2c(c1)O[C@H](c1cc(OC(C)=O)c(OC(C)=O)c(OC(C)=O)c1)[C@H](OC(=O)c1cc(OC(C)=O)c(OC(C)=O)c(OC(C)=O)c1)C2 [pro-EGCG, (−)-EGCG octaacetate]	significantly inhibited	significantly inhibited	significantly inhibited	poorly developed	significantly inhibited	significantly inhibited	significantly inhibited	–	–	–	not affected	not affected	cell death induction	exhibited proteasome inhibition	significantly lower than those in the EGCG group	much higher potency than EGCG
